Assay results taken from patent US20040076974A1, “Liver necrosis predictive genes” (priority 2002, published 2004).
Several values for one entry are separate records, joined by “and”; a condition that tells them apart may be missing. Equal entries are not always repeated.

Tested on: toxicologically relevant rat genes (rat CT array)
[1] = 24 h, dose 80, ratio treatment/control, listed as PBARB

CCC1(c2ccccc2)C(=O)NC(=O)NC1=O [phenobarbital]
17-beta hydroxysteroid dehydrogenase, type 2 [1]: 0.7562 and 0.7908 and 0.9571
60S ribosomal protein L6 [1]: 1.307 and 1.425
ATPase inhibitor (rat mitochondrial IF1 protein) [1]: 0.6848 and 0.7077 and 0.6801
Aldehyde dehydrogenase, microsomal [1]: 1.087 and 1.048
Alpha 1 - inhibitor III [1]: 0.5856 and 0.4905 and 0.5622
Alpha-2-macroglobulin [1]: 0.9113 and 0.8593 and 0.9766
Bax (alpha) [1]: 1.058 and 1.091 and 1.122
Beta-actin [1]: 1.224 and 1.246 and 1.145
Calpactin I heavy chain [1]: 1.134 and 1.063
Carbamyl phosphate synthetase I [1]: 0.8575 and 0.7797 and 0.7692
Carbonyl reductase [1]: 1.059 and 1.125 and 0.962
Cathepsin L, sequence 2 [1]: 1.574 and 1.633
Cofilin [1]: 0.9114 and 0.8537 and 0.8627
Cyclin G [1]: 1.002 and 1.066 and 1.079
DNA polymerase beta [1]: 1.046 and 1.107
Dynamin-1 (D100) [1]: 0.9128 and 0.9717 and 0.9326
Endogenous retroviral sequence, 5′ and 3′ LTR [1]: 1.21 and 0.7011 and 0.7797
Enolase alpha [1]: 1.121 and 1.118 and 1.149
Epidermal growth factor [1]: 1.003 and 1.092 and 1.144
Equilbrative nitrobenzylthioinosine-sensitive nucleoside transporter [1]: 0.9518 and 0.8269 and 0.9012
Extracellular-signal-regulated kinase 1 [1]: 1.5 and 1.071 and 0.8668
Fas antigen [1]: 1.331 and 1.404 and 1.329
Gadd45 [1]: 1.044 and 0.9552 and 1.022
Gadd153 [1]: 1.008 and 0.989 and 0.9738
Gamma-actin, cytoplasmic [1]: 1.252 and 1.167 and 1.207
Glucose-regulated protein 78 [1]: 1.679 and 1.668 and 1.487
Heme oxygenase [1]: 0.7677 and 0.7554 and 0.8649
Hepatic lipase [1]: 0.7302 and 1.208 and 0.6736
ID-1 [1]: 1.015 (2×) and 0.9098
IgE binding protein [1]: 0.9374 and 0.898
IkB-a [1]: 1.024 and 1.103 and 1.096
Insulin-like growth factor I [1]: 0.6186 and 0.52 and 0.7677
Insulin-like growth factor binding protein 1 [1]: 1.514 and 1.628
Insulin-like growth factor binding protein 3 [1]: 0.6158 and 0.8747
Integrin beta1 [1]: 1.29 and 1.37 and 1.335
L-gulono-gamma-lactone oxidase [1]: 0.6365 and 0.6402 and 0.7055
Liver fatty acid binding protein [1]: 0.8038 and 0.7393 and 0.8984
MAP kinase kinase [1]: 1.002 and 1.108
Macrophage inflammatory protein-2 alpha [1]: 1.093 and 1.12 and 1.177
Matrin F/G [1]: 0.9519 and 0.9552 and 1.004
Matrix metalloproteinase-1 [1]: 1.245 and 1.194 and 1.355
Melanoma-associated antigen ME491 [1]: 1.089 and 0.9854 and 1.045
Monocyte chemotactic protein receptor (CCR2) [1]: 1.034 and 1.086 and 1.071
Multidrug resistant protein-2 [1]: 1.301 and 1.556 and 1.405
N-hydroxy-2-acetylaminofluorene sulfotransferase (ST1C1) [1]: 0.7492 and 0.7954 and 0.8182
Nucleoside diphosphate kinase beta isoform [1]: 1.36 and 1.288 and 1.362
Organic anion transporter 3 [1]: 1.251 and 1.195 and 1.053
Organic cation transporter 3 [1]: 1.211 and 1.277 and 1.36
Ornithine decarboxylase [1]: 1.262 and 1.294 and 1.161
PAR interacting protein [1]: 1.196 and 1.432 and 1.205
Phase-1 RCT 252 [1]: 0.772 and 0.7405
Phase-1 RCT-15 [1]: 1
Phase-1 RCT-33 [1]: 1.288
Phase-1 RCT-37 [1]: 1.101
Phase-1 RCT-39 [1]: 1.631 and 1.876 and 2.263
Phase-1 RCT-40 [1]: 0.9657 and 1.099
Phase-1 RCT-48 [1]: 0.6407
Phase-1 RCT-72 [1]: 0.9031 and 0.8598
Phase-1 RCT-83 [1]: 0.7773
Phase-1 RCT-88 [1]: 0.8891
Phase-1 RCT-89 [1]: 0.9166
Phase-1 RCT-102 [1]: 0.7133 and 0.4783 and 0.5208
Phase-1 RCT-123 [1]: 0.9384 and 1.104
Phase-1 RCT-137 [1]: 0.8817
Phase-1 RCT-154 [1]: 1.303
Phase-1 RCT-180 [1]: 1.296
Phase-1 RCT-181 [1]: 0.9889
Phase-1 RCT-182 [1]: 0.9123
Phase-1 RCT-189 [1]: 0.8764 and 0.754 and 0.6881
Phase-1 RCT-191 [1]: 1.599
Phase-1 RCT-214 [1]: 0.9342 and 1.408
Phase-1 RCT-239 [1]: 0.5982 and 0.595
Phase-1 RCT-241 [1]: 1.293
Phase-1 RCT-242 [1]: 0.9855 and 0.8679 and 0.8934
Phase-1 RCT-256 [1]: 0.8602
Phase-1 RCT-264 [1]: 0.5789 and 0.5647 and 0.5936
Phase-1 RCT-270 [1]: 0.9344 and 0.9311
Phase-1 RCT-271 [1]: 1.204 and 1.753
Phase-1 RCT-291 [1]: 1.285
Phase-1 RCT-296 [1]: 0.8165
Proliferating cell nuclear antigen gene [1]: 1.007 and 0.9415 and 1.108
Ribosomal protein L13A [1]: 1.209 and 1.299
Ribosomal protein S8 [1]: 1.309 and 1.3 and 1.45
Ribosomal protein S17 [1]: 1.52
Senescence marker protein-30 [1]: 0.4601 and 0.4705 and 0.6829
Sodium/bile acid cotransporter [1]: 2.871 and 2.806 and 2.757
Superoxide dismutase Mn [1]: 1.266 and 1.52 and 1.416
Thymosin beta-10 [1]: 0.9766 and 1.212
Transthyretin [1]: 0.5528 and 0.5255 and 0.5896
Ubiquitin conjugating enzyme (RAD 6 homologue) [1]: 1.202 and 1.253 and 1.239
Uncoupling protein 2 [1]: 1.015 and 0.8977 and 1.15
Zinc finger protein [1]: 0.9857 and 1.001 and 0.984
c-jun [1]: 0.6641 and 0.6214 and 0.6871
c-myc [1]: 1.056 and 0.76 and 0.7591
p53 [1]: 1.049 and 1.111 and 0.9729
{Ribosomal protein L6} [1]: 1.301
Paraoxonase 1 (rat, in vivo): 0.7914 and 0.865 and 0.7219 and 0.8315 and 0.967
